Laboratory results from patent US11365174B2 (priority 2016, dated 2022).
“Also recorded” adds a separate entry of the source. Read-outs that look alike come from different tables or passages of the source.

Tested on: Influenza A virus strain A/Puerto Rico/8/1934 H1N1 (PR8; amantadine-resistant)
Format: cell-based
Details: for antiviral activity for the PR8 strain (NA activity as read-out for viral protein synthesis/replication): L929 cells, 18-20 hours, fluorescence normalized to DMSO; for antiviral activity for the PR8 strain (NA activity as read-out for viral protein synthesis/replication) / selective activity against PR8 strain in first screen of docking hits: half-log dilutions; for selective activity against PR8 strain in first screen of docking hits: 1-10 uM, alongside DMSO and amantadine, normalized to DMSO; for potency of antiviral activity for the PR8 strain compared to amantadine or to other compounds of the class: comparison within figure

O=[N+]([O-])c1ccc(C23CC4CC(CC(O)(C4)C2)C3)cc1 [compound 19, 3-(4-nitrophenyl)adamantan-1-ol]
antiviral activity for the PR8 strain (NA activity as read-out for viral protein synthesis/replication): antiviral activity for the PR8 strain | selective activity against PR8 strain in first screen of docking hits: selective activity against PR8 strain

COc1cc(C2OCC3(CO)C(C)C=C(C)C2C3C)ccc1O (stereo not drawn) [analog 5, 4-[5-(hydroxymethyl)-2,4,9-trimethyl-7-oxabicyclo[3.3.1]non-2-en-8-yl]-2-methoxyphenol]
antiviral activity for the PR8 strain (NA activity as read-out for viral protein synthesis/replication): antiviral activity for the PR8 strain | potency of antiviral activity for the PR8 strain compared to amantadine or to other compounds of the class: more potent antiviral activity

CC1=CCC2CC1C(c1ccc(O)cc1)OC2(C)C (stereo not drawn) [analog 4, 4-(2,2,6-trimethyl-3-oxabicyclo[3.3.1]non-6-en-4-yl)phenol]
antiviral activity for the PR8 strain (NA activity as read-out for viral protein synthesis/replication): antiviral activity for the PR8 strain | potency of antiviral activity for the PR8 strain compared to amantadine or to other compounds of the class: the most potent; also recorded: more potent antiviral activity

Cc1cccc(CNS(=O)(=O)c2c(C)cc(C)cc2C)c1 [analog 7, 2,4,6-trimethyl-N-[(3-methylphenyl)methyl]benzenesulfonamide]
antiviral activity for the PR8 strain (NA activity as read-out for viral protein synthesis/replication): potent inhibitors of NA activity and PR8 virus replication; also recorded: antiviral activity for the PR8 strain | potency of antiviral activity for the PR8 strain compared to amantadine or to other compounds of the class: more potent antiviral activity; also recorded: more potent than amantadine

COc1ccccc1CNS(=O)(=O)c1c(C)cc(C)cc1C [analog 31, N-[(2-methoxyphenyl)methyl]-2,4,6 trimethylbenzenesulfonamide]
antiviral activity for the PR8 strain (NA activity as read-out for viral protein synthesis/replication): potent inhibitors of NA activity and PR8 virus replication; also recorded: antiviral activity for the PR8 strain | potency of antiviral activity for the PR8 strain compared to amantadine or to other compounds of the class: the greatest activity

O=C(CC12CC3CC(CC(C3)C1)C2)Nc1ccc([N+](=O)[O-])cc1 [compound 16, 2-(1-adamantyl)-N-(4-nitrophenyl)acetamide]
antiviral activity for the PR8 strain (NA activity as read-out for viral protein synthesis/replication): antiviral activity for the PR8 strain | selective activity against PR8 strain in first screen of docking hits: selective activity against PR8 strain

COc1ccccc1CNS(=O)(=O)c1c(C)cc([N+](=O)[O-])cc1C [JDB-0120]
potency of antiviral activity for the PR8 strain compared to amantadine or to other compounds of the class: the most potent inhibitors of NA activity and PR8 virus replication; also recorded: the greatest activity for small molecules; also recorded: the greatest biological activity in the sulfonamide series

O=[N+]([O-])c1ccc(C23CC4CC(CC(C4)C2)C3)cc1 [analog 23, 1-(4-nitrophenyl)adamantane]
antiviral activity for the PR8 strain (NA activity as read-out for viral protein synthesis/replication): antiviral activity for the PR8 strain

Cc1cc([N+](=O)[O-])ccc1NC(=O)CC12CC3CC(CC(C3)C1)C2 [analog 21, 2-(1-adamantyl)-N-(2-methyl-4-nitrophenyl)acetamide]
antiviral activity for the PR8 strain (NA activity as read-out for viral protein synthesis/replication): antiviral activity for the PR8 strain

Cc1cc([N+](=O)[O-])cc(C)c1S(=O)(=O)NCc1ccccc1Cl [JDB-0121]
potency of antiviral activity for the PR8 strain compared to amantadine or to other compounds of the class: the most potent inhibitors of NA activity and PR8 virus replication; also recorded: the greatest activity for small molecules; also recorded: the greatest biological activity in the sulfonamide series

NC12CC3CC(CC(C3)C1)C2 [amantadine, reference compound]
antiviral activity for the PR8 strain (NA activity as read-out for viral protein synthesis/replication): moderately inhibited PR8 replication at high enough concentrations | antiviral activity for the PR8 strain (NA activity as read-out for viral protein synthesis/replication) (listed as Amantadine): moderately inhibit the replication of the PR8 strain

COc1ccc(C2OCC3(CO)C(C)C=C(C)C2C3C)cc1 (stereo not drawn) [analog 2, [8-(4-methoxyphenyl)-2,4,9-trimethyl-7-oxabicyclo[3.3.1]non-2-en-5-yl]methanol]
antiviral activity for the PR8 strain (NA activity as read-out for viral protein synthesis/replication): antiviral activity for the PR8 strain | potency of antiviral activity for the PR8 strain compared to amantadine or to other compounds of the class: more potent antiviral activity

Cc1cc(C)c(S(=O)(=O)NCc2ccccc2Cl)c(C)c1 [analog 11, N-[(2-chlorophenyl)methyl]-2,4,6 trimethylbenzenesulfonamide]
antiviral activity for the PR8 strain (NA activity as read-out for viral protein synthesis/replication): potent inhibitors of NA activity and PR8 virus replication; also recorded: antiviral activity for the PR8 strain | potency of antiviral activity for the PR8 strain compared to amantadine or to other compounds of the class: the most potent

CC12CC3CC(C)(C1)CC(C(=O)Nc1ccc([N+](=O)[O-])cc1)(C3)C2 [analog 18, 3,5-dimethyl-N-(4-nitrophenyl)adamantane-1-carboxamide]
antiviral activity for the PR8 strain (NA activity as read-out for viral protein synthesis/replication): antiviral activity for the PR8 strain | potency of antiviral activity for the PR8 strain compared to amantadine or to other compounds of the class: the most potent

Cc1cc(C)c(S(=O)(=O)NCc2ccccc2)c(C)c1 [compound 3, N-benzyl-2,4,6-trimethylbenzenesulfonamide]
antiviral activity for the PR8 strain (NA activity as read-out for viral protein synthesis/replication): antiviral activity for the PR8 strain | potency of antiviral activity for the PR8 strain compared to amantadine or to other compounds of the class: more potent than amantadine | selective activity against PR8 strain in first screen of docking hits: selective activity against PR8 strain
